The source of these data is ChEMBL document CHEMBL1148994, “On the active principles of the spurge family, X. Skin irritants, cocarcinogens, and cryptic cocarcinogens from the latex of the manchineel tree” (J Nat Prod, 1984).

A short description of series [1]: Toxicity in NMRI mouse assessed as survival rate at 3.1 ug for 48 weeks measured after 24 weeks. It counts as organism-based. To be noted: in vivo, read-out: Activity.
A short description of series [2]: Toxicity in NMRI mouse back skin assessed as survival rate at 11.7 ug for 48 weeks measured after 24 weeks. The class given is organism-based, Zone of skin. To be noted: in vivo, topical or ocular, read-out: Activity.
For series [3], the species on record is Mus musculus. In words: Toxicity in NMRI mouse assessed as drug level required for irritant activity in 50% animal assessed per ear. It counts as organism-based. To be noted: in vivo.
The species named for series [4] is Mus musculus. The experiment in a line: Carcinogenic activity in NMRI mouse assessed as number of tumor bearing mouse at 12.2 ug for 34 weeks measured after 12 weeks. The class given is ADME, organism-based. To be noted: in vivo, 2016 h.
The species named for series [5] is Mus musculus. The experiment in a line: Carcinogenic activity in NMRI mouse assessed as number of tumors per mouse at 12.2 ug for 34 weeks measured after 12 weeks. To be noted: in vivo, 2016 h. The class given is ADME, organism-based.
Series [6] is described as follows: Toxicity in NMRI mouse assessed as survival rate at 12.2 ug for 34 weeks measured after 24 weeks. It counts as organism-based. To be noted: in vivo, read-out: Activity.

For `C=C(C)[C@]12C[C@@H](C)[C@@]34O[C@](/C=C/C=C/CCCCCCCCC)(O[C@@H]1[C@@H]3[C@@H]1O[C@]1(CO)[C@@H](O)[C@]1(O)C(=O)C(C)=C[C@H]14)O2`, the survival at 4032 h in series [1] and in series [2] was 96% in each case.

In the case of `CCCCCCCCC/C=C/C=C/C=C/C(=O)O[C@@]12C[C@@H](C)[C@@]3(O)[C@H]([C@@H]1C2(C)C)[C@@H]1O[C@]1(CO)[C@@H](O)[C@]1(O)C(=O)C(C)=C[C@H]13` [MANCINELLIN], the Activity in series [3] was 0.15 µg; in series [4], “Not Active”; in series [5], “Not Active”. Moreover, the survival at 4032 h in series [6] came out at 100%.

For the compound `CCCCCCCCCCCCCC(=O)O[C@@H]1[C@@H](C)[C@@]2(O)[C@@H](C=C(CO)C[C@]3(O)C(=O)C(C)=C[C@@H]23)[C@@H]2C(C)(C)[C@]12OC(C)=O` [TETRADECANOYL PHORBOL ACETATE], the Activity in series [3] was determined as 0.01 µg. Further, the survival at 4032 h in series [1] stood at 96%.
